{"source": "ChEMBL document CHEMBL6083273", "about": "“Targeting Periplakin of Novel Benzenesulfonamides as Highly Selective Agonists for the Treatment of Vitiligo” (2024)", "key": {"Danio rerio [1]": {"species_on_record": "Danio rerio", "assay": "Induction of melanogenesis in zebrafish treated for 24 hrs by absorbance based assay (reference value: 98.2 to 100.3 %)", "type": "functional"}, "Danio rerio [2]": {"species_on_record": "Danio rerio", "assay": "Induction of melanogenesis in zebrafish at 40 uM treated for 24 hrs by absorbance based assay", "type": "functional, organism-based"}, "Danio rerio [3]": {"species_on_record": "Danio rerio", "assay": "Induction of melanogenesis in zebrafish at 40 uM treated for 24 hrs by absorbance based assay relative to control", "type": "functional"}, "Danio rerio [4]": {"species_on_record": "Danio rerio", "assay": "Induction of melanogenesis in zebrafish treated for 24 hrs by absorbance based assay", "type": "functional, organism-based"}, "Danio rerio [5]": {"species_on_record": "Danio rerio", "assay": "Induction of melanogenesis in zebrafish at 0.1 nM treated for 24 hrs by absorbance based assay", "type": "functional, organism-based"}, "Danio rerio [6]": {"species_on_record": "Danio rerio", "assay": "Effect on tryptophan metabolism in zebrafish embryo assessed as 5-HIAA metabolite level at 10 uM by LC/MS analysis", "type": "functional"}, "Danio rerio [7]": {"species_on_record": "Danio rerio", "assay": "Effect on tryptophan metabolism in zebrafish embryo assessed as ICA metabolite level at 10 uM by LC/MS analysis", "type": "functional"}, "Danio rerio [8]": {"species_on_record": "Danio rerio", "assay": "Effect on tryptophan metabolism in zebrafish embryo assessed as NA metabolite level at 10 uM by LC/MS analysis", "type": "functional"}, "Danio rerio [9]": {"species_on_record": "Danio rerio", "assay": "Effect on tryptophan metabolism in zebrafish embryo assessed as AA metabolite level at 10 uM by LC/MS analysis", "type": "functional"}, "Danio rerio [10]": {"species_on_record": "Danio rerio", "assay": "Effect on tryptophan metabolism in zebrafish embryo assessed as Trp metabolite level at 10 uM by LC/MS analysis", "type": "functional"}, "Danio rerio [11]": {"species_on_record": "Danio rerio", "assay": "Effect on tryptophan metabolism in zebrafish embryo assessed as Xa metabolite level at 10 uM by LC/MS analysis", "type": "functional"}, "Danio rerio [12]": {"species_on_record": "Danio rerio", "assay": "Effect on tryptophan metabolism in zebrafish embryo assessed as KYNA metabolite level at 10 uM by LC/MS analysis", "type": "functional"}, "Danio rerio [13]": {"species_on_record": "Danio rerio", "assay": "Effect on tryptophan metabolism in zebrafish embryo assessed as IA metabolite level at 10 uM by LC/MS analysis", "type": "functional"}, "Danio rerio [14]": {"species_on_record": "Danio rerio", "assay": "Effect on tryptophan metabolism in zebrafish embryo assessed as 3-HAA metabolite level at 10 uM by LC/MS analysis", "type": "functional"}, "Danio rerio [15]": {"species_on_record": "Danio rerio", "assay": "Effect on tryptophan metabolism in zebrafish embryo assessed as skatole metabolite level at 10 uM by LC/MS analysis", "type": "functional"}, "Danio rerio [16]": {"species_on_record": "Danio rerio", "assay": "Effect on tryptophan metabolism in zebrafish embryo assessed as NAS metabolite level at 10 uM by LC/MS analysis", "type": "functional"}, "Danio rerio [17]": {"species_on_record": "Danio rerio", "assay": "Effect on tryptophan metabolism in zebrafish embryo assessed as 5-HTP metabolite level at 10 uM by LC/MS analysis", "type": "functional"}, "Danio rerio [18]": {"species_on_record": "Danio rerio", "assay": "Effect on tryptophan metabolism in zebrafish embryo assessed as IPA metabolite level at 10 uM by LC/MS analysis", "type": "functional"}, "Danio rerio [19]": {"species_on_record": "Danio rerio", "assay": "Effect on tryptophan metabolism in zebrafish embryo assessed as IAN metabolite level at 10 uM by LC/MS analysis", "type": "functional"}, "Danio rerio [20]": {"species_on_record": "Danio rerio", "assay": "Effect on tryptophan metabolism in zebrafish embryo assessed as LE metabolite level at 10 uM by LC/MS analysis", "type": "functional"}, "Danio rerio [21]": {"species_on_record": "Danio rerio", "assay": "Effect on tryptophan metabolism in zebrafish embryo assessed as 3-HK metabolite level at 10 uM by LC/MS analysis", "type": "functional"}, "Danio rerio [22]": {"species_on_record": "Danio rerio", "assay": "Effect on tryptophan metabolism in zebrafish embryo assessed as ILA metabolite level at 10 uM by LC/MS analysis", "type": "functional"}, "Danio rerio [23]": {"species_on_record": "Danio rerio", "assay": "Effect on tryptophan metabolism in zebrafish embryo assessed as indole metabolite level at 10 uM by LC/MS analysis", "type": "functional"}, "Danio rerio [24]": {"species_on_record": "Danio rerio", "assay": "Effect on tryptophan metabolism in zebrafish embryo assessed as IAA metabolite level at 10 uM by LC/MS analysis", "type": "functional"}}, "note": "Active and inactive are the calls of the source. The calls are words filed in the database; no cut-off is given here."}
{"smiles": "C[C@H](Nc1nccc(NS(=O)(=O)c2cccc([N+](=O)[O-])c2)n1)c1ccc([N+](=O)[O-])cc1", "values": [{"measurement": "Activity", "setting": "Danio rerio [1]", "value": 129.75, "unit": "%"}]}
{"smiles": "C[C@H](Nc1nccc(NS(=O)(=O)c2cccc([N+](=O)[O-])c2)n1)c1ccccc1", "values": [{"measurement": "Activity", "setting": "Danio rerio [1]", "value": 99.105, "unit": "%"}]}
{"smiles": "Cc1cc(-c2ccc([C@H](C)Nc3nccc(NS(=O)(=O)c4cc(C(F)(F)F)cc(C(F)(F)F)c4)n3)cc2)ccc1F", "values": [{"measurement": "Activity", "setting": "Danio rerio [1]", "value": 114.22, "unit": "%"}]}
{"smiles": "C[C@H](Nc1nccc(NS(=O)(=O)c2cccc([N+](=O)[O-])c2)n1)c1ccc(-c2ccc(F)cc2)cc1", "values": [{"measurement": "Activity", "setting": "Danio rerio [1]", "value": 146.53, "unit": "%"}]}
{"smiles": "O=[N+]([O-])c1cccc(S(=O)(=O)Nc2ccnc(NCc3ccc(F)cc3)n2)c1", "values": [{"measurement": "Activity", "setting": "Danio rerio [1]", "value": 115.42, "unit": "%"}]}
{"smiles": "O=[N+]([O-])c1cccc(S(=O)(=O)Nc2ccnc(NCc3ccccc3)n2)c1", "values": [{"measurement": "Activity", "setting": "Danio rerio [1]", "value": 107.18, "unit": "%"}]}
{"smiles": "C[C@H](Nc1nccc(NS(=O)(=O)c2cccc([N+](=O)[O-])c2)n1)c1ccc(-c2ccc(F)c(COCCCNC(=O)CCCC[C@@H]3SC[C@@H]4NC(=O)N[C@@H]43)c2)cc1", "values": [{"measurement": "Activity", "setting": "Danio rerio [2]", "value": "Active"}]}
{"smiles": "COc1ccc(S(=O)(=O)Nc2ccnc(N[C@@H](C)c3ccc(-c4ccc(F)c(C)c4)cc3)n2)cc1", "values": [{"measurement": "Activity", "setting": "Danio rerio [1]", "value": 67.56, "unit": "%"}]}
{"smiles": "Cc1cc(-c2ccc([C@H](C)Nc3nccc(NS(=O)(=O)Cc4ccccc4)n3)cc2)ccc1F", "values": [{"measurement": "Activity", "setting": "Danio rerio [1]", "value": 132.22, "unit": "%"}]}
{"smiles": "C[C@H](Nc1nccc(NS(=O)(=O)c2cccc([N+](=O)[O-])c2)n1)c1ccc(C2CC2)cc1", "values": [{"measurement": "Activity", "setting": "Danio rerio [1]", "value": 149.56, "unit": "%"}]}
{"smiles": "Cc1cc(-c2ccc([C@H](C)Nc3nccc(NS(=O)(=O)c4ccccc4C)n3)cc2)ccc1F", "values": [{"measurement": "Activity", "setting": "Danio rerio [1]", "value": 63.17, "unit": "%"}]}
{"smiles": "Cc1ccc(CNc2nccc(NS(=O)(=O)c3cccc([N+](=O)[O-])c3)n2)cc1", "values": [{"measurement": "Activity", "setting": "Danio rerio [1]", "value": 148.37, "unit": "%"}]}
{"smiles": "Cc1cc(-c2ccc([C@H](C)Nc3nccc(NS(=O)(=O)c4ccccc4)n3)cc2)ccc1F", "values": [{"measurement": "Emax at 40 µM", "setting": "Danio rerio [3]", "value": 139, "unit": "%"}, {"measurement": "Activity", "setting": "Danio rerio [4]", "value": "Dose-dependent-effect"}]}
{"smiles": "O=[N+]([O-])c1cccc(S(=O)(=O)Nc2ccnc(NCc3ccc(C(F)(F)F)cc3)n2)c1", "values": [{"measurement": "Activity", "setting": "Danio rerio [1]", "value": 93.387, "unit": "%"}]}
{"smiles": "Cc1cccc(S(=O)(=O)Nc2ccnc(N[C@@H](C)c3ccc(-c4ccc(F)c(C)c4)cc3)n2)c1", "values": [{"measurement": "Activity", "setting": "Danio rerio [1]", "value": 46.585, "unit": "%"}]}
{"smiles": "C[C@H](Nc1nccc(NS(=O)(=O)c2cccc([N+](=O)[O-])c2)n1)c1ccc(-c2ccccc2)cc1", "values": [{"measurement": "Activity", "setting": "Danio rerio [1]", "value": 106.72, "unit": "%"}]}
{"smiles": "O=[N+]([O-])c1cccc(S(=O)(=O)Nc2ccnc(Nc3ccccc3)n2)c1", "values": [{"measurement": "Activity", "setting": "Danio rerio [1]", "value": 155.77, "unit": "%"}]}
{"smiles": "Cc1ccc(S(=O)(=O)Nc2ccnc(N[C@@H](C)c3ccc(-c4ccc(F)c(C)c4)cc3)n2)cc1", "values": [{"measurement": "Activity", "setting": "Danio rerio [1]", "value": 135.69, "unit": "%"}]}
{"smiles": "COc1ccc(CNc2nccc(NS(=O)(=O)c3cccc([N+](=O)[O-])c3)n2)cc1", "values": [{"measurement": "Activity", "setting": "Danio rerio [1]", "value": 132.54, "unit": "%"}]}
{"smiles": "Cc1cc(-c2ccc([C@H](C)Nc3nccc(NS(=O)(=O)c4cc(F)cc(F)c4)n3)cc2)ccc1F", "values": [{"measurement": "Activity", "setting": "Danio rerio [1]", "value": 81.815, "unit": "%"}]}
{"smiles": "Cc1cc(-c2ccc([C@H](C)Nc3nccc(NS(=O)(=O)c4cccc(C(F)(F)F)c4)n3)cc2)ccc1F", "values": [{"measurement": "Activity", "setting": "Danio rerio [1]", "value": 58.78, "unit": "%"}]}
{"smiles": "C=C1/C(=C\\C=C2/CCC[C@]3(C)[C@@H]([C@H](C)/C=C/[C@@H](O)C4CC4)CC[C@@H]23)C[C@@H](O)C[C@@H]1O", "values": [{"measurement": "Activity", "setting": "Danio rerio [5]", "value": "Active"}]}
{"smiles": "Cc1cc(-c2ccc([C@H](C)Nc3nccc(NS(=O)(=O)c4ccc5ccccc5c4)n3)cc2)ccc1F", "values": [{"measurement": "Activity", "setting": "Danio rerio [1]", "value": 89.349, "unit": "%"}]}
{"smiles": "C[C@H](Nc1nccc(NS(=O)(=O)c2cccc([N+](=O)[O-])c2)n1)c1ccc(-c2cccs2)cc1", "values": [{"measurement": "Activity", "setting": "Danio rerio [1]", "value": 94.688, "unit": "%"}]}
{"smiles": "C[C@H](Nc1nccc(NS(=O)(=O)c2cccc([N+](=O)[O-])c2)n1)c1ccc(-c2ccc3ccccc3c2)cc1", "values": [{"measurement": "Activity", "setting": "Danio rerio [1]", "value": 77.723, "unit": "%"}]}
{"smiles": "Cc1cc(-c2ccc([C@H](C)Nc3nccc(NS(=O)(=O)c4ccc(F)cc4)n3)cc2)ccc1F", "values": [{"measurement": "Activity", "setting": "Danio rerio [6]", "value": 105.04, "unit": "nmol/kg"}, {"measurement": "Activity", "setting": "Danio rerio [7]", "value": 25.11, "unit": "nmol/kg"}, {"measurement": "Activity", "setting": "Danio rerio [8]", "value": 2175.78, "unit": "nmol/kg"}, {"measurement": "Activity", "setting": "Danio rerio [9]", "value": 13.62, "unit": "nmol/kg"}, {"measurement": "Activity", "setting": "Danio rerio [10]", "value": 234150.9, "unit": "nmol/kg"}, {"measurement": "Activity", "setting": "Danio rerio [11]", "value": 468.35, "unit": "nmol/kg"}, {"measurement": "Activity", "setting": "Danio rerio [12]", "value": 1.12, "unit": "nmol/kg"}, {"measurement": "Activity", "setting": "Danio rerio [1]", "value": 135.12, "unit": "%"}, {"measurement": "Activity", "setting": "Danio rerio [13]", "value": 21.42, "unit": "nmol/kg"}, {"measurement": "Activity", "setting": "Danio rerio [14]", "value": 1.15, "unit": "nmol/kg"}, {"measurement": "Activity", "setting": "Danio rerio [15]", "value": 506.87, "unit": "nmol/kg"}, {"measurement": "Activity", "setting": "Danio rerio [16]", "value": 0.09, "unit": "nmol/kg"}, {"measurement": "Activity", "setting": "Danio rerio [17]", "value": 42.55, "unit": "nmol/kg"}, {"measurement": "Activity", "setting": "Danio rerio [18]", "value": 22.24, "unit": "nmol/kg"}, {"measurement": "Activity", "setting": "Danio rerio [19]", "value": 16.03, "unit": "nmol/kg"}, {"measurement": "Activity", "setting": "Danio rerio [20]", "value": 53.82, "unit": "nmol/kg"}, {"measurement": "Activity", "setting": "Danio rerio [21]", "value": 109.36, "unit": "nmol/kg"}, {"measurement": "Activity", "setting": "Danio rerio [22]", "value": 108.22, "unit": "nmol/kg"}, {"measurement": "Activity", "setting": "Danio rerio [23]", "value": 754.01, "unit": "nmol/kg"}, {"measurement": "Activity", "setting": "Danio rerio [24]", "value": 0.85, "unit": "nmol/kg"}]}
